Results: PubChem BioAssay AID330 (DTP/NCI, 2004)
Values joined by “and” are separate entries in the source; they are usually repeats but may differ in a detail not shown here. Equal entries are not always repeated. Toxic doses and inconclusive results are not listed.

System: P388 leukemia ip, CD2F1 mice, survival T/C
Experiment: NCI In Vivo Anticancer Drug Screen. Data for tumor model P388 Leukemia (intraperitoneal) in CD2F1 (CDF1) mice
Settings: endpoint: median survival time, higher = longer survival
Method in brief: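 Mice carrying the transplanted tumor received test compound or vehicle. Survival was recorded in each group, and the value is the treated-group measurement divided by that of the vehicle-treated control group.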

[1] = dose: 100.0 mg/kg/injection, schedule: Q01DX009 (ip), vehicle: saline with Tween-80
[2] = dose: 200.0 mg/kg/injection, schedule: Q01DX009 (ip), vehicle: saline with Tween-80
[3] = dose: 50.0 mg/kg/injection, schedule: Q01DX005 (ip), vehicle: saline with Tween-80
[4] = dose: 100.0 mg/kg/injection, schedule: Q01DX005 (ip), vehicle: saline with Tween-80
[5] = dose: 200.0 mg/kg/injection, schedule: Q01DX005 (ip), vehicle: saline with Tween-80
[6] = dose: 100.0 mg/kg/injection, schedule: Q04DX003 (ip), vehicle: saline with Tween-80
[7] = dose: 100.0 mg/kg/injection, schedule: Q04DX003 (ip), vehicle: saline
[8] = dose: 200.0 mg/kg/injection, schedule: Q04DX003 (ip), vehicle: saline
[9] = dose: 50.0 mg/kg/injection, schedule: Q01DX009 (ip), vehicle: Klucel (hydroxypropylcellulose) (HPC)
[10] = dose: 100.0 mg/kg/injection, schedule: Q01DX009 (ip), vehicle: Klucel (hydroxypropylcellulose) (HPC)
[11] = dose: 200.0 mg/kg/injection, schedule: Q01DX009 (ip), vehicle: Klucel (hydroxypropylcellulose) (HPC)

COc1c(OC2OC(CO)C(O)C(O)C2O)cc2occ(-c3ccc4c(c3)OCO4)c(=O)c2c1O (stereo not given) was tested. Which T/C (dose: 4.0 mg/kg/injection, schedule: Q01DX005 (ip), vehicle: saline with Tween-80) did it give?
Its T/C is 94 % of control.

What about the T/C (dose: 8.0 mg/kg/injection, schedule: Q01DX005 (ip), vehicle: saline with Tween-80) of the same compound?
Its T/C is 101 % of control.

And the T/C (dose: 16.0 mg/kg/injection, schedule: Q01DX005 (ip), vehicle: saline with Tween-80)?
The T/C was 101 % of control.

What about the T/C (dose: 32.0 mg/kg/injection, schedule: Q01DX005 (ip), vehicle: saline with Tween-80) of the same compound?
The T/C was 95 % of control.

What does the source list for COc1cccc(C(=O)NCCNCCNC(=O)c2cccc(OC)c2OC)c1OC?
T/C (dose: 60.0 mg/kg/injection, schedule: Q01DX005 (ip), vehicle: saline with Tween-80): 108 % of control; T/C (dose: 120.0 mg/kg/injection, schedule: Q01DX005 (ip), vehicle: saline with Tween-80): 104 % of control; T/C (dose: 240.0 mg/kg/injection, schedule: Q01DX005 (ip), vehicle: saline with Tween-80): 94 % of control

For O=C(O)c1cc2ccccc2c2c1C(=O)c1ccccc1-2, which T/C (dose: 50.0 mg/kg/injection, schedule: Q01DX009 (ip), vehicle: saline with Tween-80) is on record?
Its T/C is 90 % of control.

And the T/C [1]?
The T/C was 95 % of control.

And the T/C [2]?
Its T/C is 91 % of control.

With O=[N+]([O-])c1ccc(/C=[N+](\[O-])CCO)cc1 as the compound, how does the T/C [1] read?
The T/C was 99 % of control.

What about the T/C [2] of the same compound?
Its T/C is 92 % of control.

How did the T/C [3] turn out when O=C(O)C(O)C(O)C1[O][Sb][O]C1CO (stereo not given) was run?
Its T/C is 98 % of control.

And the T/C [4]?
The T/C was 96 % of control.

What about the T/C [5] of the same compound?
The T/C was 96 % of control.

Cc1cnc(Cl)nc1Sc1nc(N)nc2nc[nH]c12 was tested. Which T/C (dose: 4.0 mg/kg/injection, schedule: Q01DX009 (ip), vehicle: saline with Tween-80) did it give?
The T/C was 150 % of control.

And the T/C (dose: 12.5 mg/kg/injection, schedule: Q01DX009 (ip), vehicle: saline with Tween-80)?
Its T/C is 122 % of control.

And the T/C (dose: 25.0 mg/kg/injection, schedule: Q04DX003 (ip), vehicle: saline with Tween-80)?
The T/C was 154 % of control.

What about the T/C (dose: 50.0 mg/kg/injection, schedule: Q04DX003 (ip), vehicle: saline with Tween-80) of the same compound?
The T/C was 159 % of control.

What about the T/C [6] of the same compound?
The T/C was 100 % of control.

Which results are given for CC(C)C[C@H](O)C(=O)O?
T/C (dose: 50.0 mg/kg/injection, schedule: Q04DX003 (ip), vehicle: saline): 100 % of control; T/C [7]: 100 % of control; T/C [8]: 100 % of control

CCC(Cl)C#N (stereo not given) was tested. Which T/C (dose: 7.5 mg/kg/injection, schedule: Q01DX005 (ip), vehicle: saline with Tween-80) did it give?
Its T/C is 106 % of control.

And the T/C (dose: 15.0 mg/kg/injection, schedule: Q01DX005 (ip), vehicle: saline with Tween-80)?
The T/C was 100 % of control.

For COc1cccc(CCC(=O)O)c1OC, which T/C (dose: 25.0 mg/kg/injection, schedule: Q01DX009 (ip), vehicle: water) is on record?
Its T/C is 103 % of control.

What about the T/C (dose: 50.0 mg/kg/injection, schedule: Q01DX009 (ip), vehicle: water) of the same compound?
The T/C was 100 % of control.

And the T/C (dose: 100.0 mg/kg/injection, schedule: Q01DX009 (ip), vehicle: water)?
Its T/C is 108 % of control.

What about the T/C (dose: 200.0 mg/kg/injection, schedule: Q01DX009 (ip), vehicle: water) of the same compound?
Its T/C is 91 % of control.

And the T/C (dose: 400.0 mg/kg/injection, schedule: Q01DX009 (ip), vehicle: water)?
Its T/C is 92 % of control.

Which T/C (dose: 5.0 mg/kg/injection, schedule: Q04DX003 (ip), vehicle: water) does the source give for BrCC[N+]12CC[N+](CCBr)(CC1)C2 (tested in a mixture with another compound) here?
The T/C was 107 % of control.

What about the T/C (dose: 10.0 mg/kg/injection, schedule: Q04DX003 (ip), vehicle: water) of the same compound?
Its T/C is 114 % of control.

What about the T/C (dose: 20.0 mg/kg/injection, schedule: Q04DX003 (ip), vehicle: distilled water + Tween-80) of the same compound?
Its T/C is 122 % of control.

And the T/C (dose: 20.0 mg/kg/injection, schedule: Q04DX003 (ip), vehicle: water)?
Its T/C is 100 % of control.

What about the T/C (dose: 37.5 mg/kg/injection, schedule: Q04DX003 (ip), vehicle: water) of the same compound?
The T/C was 112 % of control.

And the T/C (dose: 40.0 mg/kg/injection, schedule: Q04DX003 (ip), vehicle: distilled water + Tween-80)?
Its T/C is 107 % of control.

And the T/C (dose: 40.0 mg/kg/injection, schedule: Q04DX003 (ip), vehicle: water)?
The T/C was 104 % of control.

And the T/C (dose: 80.0 mg/kg/injection, schedule: Q04DX003 (ip), vehicle: distilled water + Tween-80)?
Its T/C is 118 % of control.

What about the T/C (dose: 80.0 mg/kg/injection, schedule: Q04DX003 (ip), vehicle: water) of the same compound?
Its T/C is 110 % of control.

And the T/C (dose: 160.0 mg/kg/injection, schedule: Q04DX003 (ip), vehicle: distilled water + Tween-80)?
The T/C was 116 % of control.

And the T/C (dose: 160.0 mg/kg/injection, schedule: Q04DX003 (ip), vehicle: water)?
The T/C was 112 % of control.

Which T/C (dose: 25.0 mg/kg/injection, schedule: Q04DX002 (ip), vehicle: saline) does the source give for O=C1CSC(=S)N1/N=C/c1ccccc1 here?
Its T/C is 100 % of control.

What about the T/C (dose: 50.0 mg/kg/injection, schedule: Q04DX002 (ip), vehicle: saline) of the same compound?
The T/C was 105 % of control.

And the T/C (dose: 100.0 mg/kg/injection, schedule: Q04DX002 (ip), vehicle: saline)?
Its T/C is 98 % of control.

Which T/C [9] does the source give for O=c1c(Cl)c2oc3cc([N+](=O)[O-])ccc3nc-2c(Cl)c1Cl here?
The T/C was 107 % of control.

What about the T/C [10] of the same compound?
The T/C was 99 % of control.

And the T/C [11]?
The T/C was 91 % of control.

Which results are given for COc1cc2c(cc1O)C(c1cc(O)c(O)c(OC)c1)C(O)(C(=O)O)C(CO)C2O (stereo not given)?
T/C [3]: 100 % of control; T/C [4]: 101 % of control; T/C [5]: 99 % of control

What does the source list for O=NN(CCCl)C(=O)N1CCCOC1=O?
T/C (dose: 12.5 mg/kg/injection, schedule: Q01DX001 (ip), vehicle: saline with Tween-80): 115 % of control and 121 % of control; T/C (dose: 25.0 mg/kg/injection, schedule: Q01DX001 (ip), vehicle: saline with Tween-80): 116 % of control

Which T/C [7] does the source give for CCSC(C/C=C/c1ccccc1)S(=O)CC (stereo not given) here?
The T/C was 99 % of control.

What about the T/C [8] of the same compound?
Its T/C is 107 % of control.

And the T/C (dose: 400.0 mg/kg/injection, schedule: Q04DX003 (ip), vehicle: saline)?
Its T/C is 105 % of control.

How did the T/C [6] turn out when c1ccc([P+]23OCCN2CCO3)cc1 was run?
The T/C was 104 % of control.

What about the T/C (dose: 200.0 mg/kg/injection, schedule: Q04DX003 (ip), vehicle: saline with Tween-80) of the same compound?
Its T/C is 98 % of control.

And the T/C (dose: 400.0 mg/kg/injection, schedule: Q04DX003 (ip), vehicle: saline with Tween-80)?
The T/C was 102 % of control.

With CC1(C)CC2(C)OCCN2C(=S)N1 (stereo not given) as the compound, how does the T/C [9] read?
The T/C was 100 % of control.

What about the T/C [10] of the same compound?
Its T/C is 90 % of control.

And the T/C [11]?
The T/C was 89 % of control.

Which T/C (dose: 2.75 mg/kg/injection, schedule: Q01DX009 (ip), vehicle: saline) does the source give for C[C@@H]1C[C@](O)([C@@H](C)Cl)C(=O)O[C@@H]2CCN3CC=C(COC(=O)[C@]1(C)O)[C@H]23 here?
The T/C was 104 % of control.

And the T/C (dose: 3.75 mg/kg/injection, schedule: Q01DX009 (ip), vehicle: saline)?
Its T/C is 103 % of control.

What about the T/C (dose: 5.5 mg/kg/injection, schedule: Q01DX009 (ip), vehicle: saline) of the same compound?
Its T/C is 104 % of control.

What about the T/C (dose: 7.5 mg/kg/injection, schedule: Q01DX009 (ip), vehicle: saline) of the same compound?
Its T/C is 106 % of control.

What about the T/C (dose: 11.0 mg/kg/injection, schedule: Q01DX009 (ip), vehicle: saline) of the same compound?
The T/C was 113 % of control.

What about the T/C (dose: 15.0 mg/kg/injection, schedule: Q01DX009 (ip), vehicle: saline) of the same compound?
The T/C was 95 % of control.

And the T/C (dose: 22.0 mg/kg/injection, schedule: Q01DX009 (ip), vehicle: saline)?
Its T/C is 104 % of control.

What about the T/C (dose: 30.0 mg/kg/injection, schedule: Q01DX009 (ip), vehicle: saline) of the same compound?
Its T/C is 106 % of control.

Which T/C (dose: 15.0 mg/kg/injection, schedule: Q01DX005 (ip), vehicle: Klucel (hydroxypropylcellulose) (HPC)) does the source give for Cc1cnc2cc(-c3ccccc3)[nH]c2n1 here?
Its T/C is 90 % of control.

And the T/C (dose: 30.0 mg/kg/injection, schedule: Q01DX005 (ip), vehicle: Klucel (hydroxypropylcellulose) (HPC))?
The T/C was 87 % of control.

And the T/C (dose: 60.0 mg/kg/injection, schedule: Q01DX005 (ip), vehicle: Klucel (hydroxypropylcellulose) (HPC))?
The T/C was 88 % of control.

How did the T/C (dose: 100.0 mg/kg/injection, schedule: Q04DX002 (ip), vehicle: saline with Tween-80) turn out when CCCCCCCCCCCCCCCCN(C)C(C)c1ccccc1 (stereo not given) was run?
Its T/C is 103 % of control.

And the T/C (dose: 200.0 mg/kg/injection, schedule: Q04DX002 (ip), vehicle: saline with Tween-80)?
The T/C was 101 % of control.

And the T/C (dose: 400.0 mg/kg/injection, schedule: Q04DX002 (ip), vehicle: saline with Tween-80)?
The T/C was 104 % of control.
